Experimental data reported in patent US7435801B2, “Antibodies and other ligands directed against KIR2DL4 receptor for production of interferon gamma” (The United States of America, as represented by the …, priority 2000, dated 2008).

How the values were obtained:
[1] = test system: 2DL4-induced production of IFN-gamma; experiment: MAPK inhibitors on anti-2DL4 mAb-induced IFN-gamma secretion by resting NK cells; type: cell-based, human
[2] = test system: IL-2-mediated induction of IFN-gamma production; experiment: MAPK inhibitors on rIL-2-induced IFN-gamma release by resting NK cells; type: cell-based, human; conditions: rIL-2 5 U/ml, 20 h

Row | SMILES | inhibition of 2DL4-induced IFN-gamma production ([1]; 1 μM inhibitor) | effect on IL-2-mediated induction of IFN-gamma production ([2]; concentration not given) | inhibition of 2DL4-induced IFN-gamma production ([1]; concentration not given) | inhibition of IL-2-mediated induction of IFN-gamma production ([2]; 50 μM inhibitor)
1 | C[S+]([O-])c1ccc(-c2nc(-c3ccncc3)c(-c3ccc(F)cc3)[nH]2)cc1 (stereo not shown) [SB203580] | Complete inhibition | unaffected |  | 
2 | COc1cccc(-c2cc(=O)c3ccccc3o2)c1N [PD98059] |  |  | only a partial inhibitory effect | severely inhibited
